Measurements published in patent publication US20260265244A1, “HETEROCYCLIC COMPOUNDS AS STING ANTAGONISTS” (Boehringer Ingelheim International GmbH, priority 2022, published 2026).

What was measured:
human STING WT (R232) = target: T1, human STING WT (R232) (Homo sapiens, UniProt Q86WV6, H232R); experiment: Human STING HTRF binding assay (competitive, Cisbio 64BDSTGPEG)
T1 construct: purchased Cisbio 64BDSTGPEG
Description: Binders to human STING WT (R232) were identified using a competitive HTRF assay format (Cisbio 64BDSTGPEG), which uses d2-labeled STING ligand, a 6His (SEQ ID NO: 2) tagged human STING protein, and an anti 6His (SEQ ID NO: 2) Cryptate-labeled antibody. Compounds compete with the STING ligand-d2 and thereby prevents FRET from occurring, which can be measured by an EnVision™ reader (PerkinElmer).
Assay method: Compounds were delivered as 10 mM DMSO solution, serially diluted by an Agilent Bravo Workstation and transferred to the 384 well assay plate (Perkin Elmer #6005359) using a Cybiwell dispenser. Typically, 8 concentrations were used with the highest concentration at 10 μM or 1 μM in the final assay volume followed by ~1:5 dilution steps. DMSO concentration was set to 1% in the final assay volume. The 384 well assay plate contained 20 test compounds and DMSO in column 23 and 24. A cGAMP standard dilution row was prepared according to the manufacturer and transferred to each assay plate. After transfer of compound solution or dilution buffer for negative (high) and positive (low) controls, 5 μl of the human STING protein (cyclic binding domain (residues 138-379) of the WT R232 human version, fused to a 6 His tag (SEQ ID NO: 2) at the Nter part; 1:50 dilution in detection buffer) were dispensed to all wells except of the positive control, which received detection buffer only. Plates were the centrifuged for 20 sec at 1000 rpm. After that, 10 μl of Anti-6His-Cryptate antibody/Sting ligand-d2 mix was added to all wells using a Multidrop combi dispenser, followed by another sec/1000 rpm centrifugation step. After an incubation of the plates for 180 min at room temperature, […] at […] (HTRF ratio) was measured using an Envison Reader (PerkinElmer).
Data evaluation and calculation: For data evaluation and calculation, HTRF ratios were calibrated using the cGAMP standard curve. After that, the measurement of the low control was set as 0% control and the measurement of the high control was set as 100% control. The IC50 values were calculated using the standard 4 parameter logistic regression formula. Calculation: [y=(a−d)/(1+(x/c)^b)+d], a=low value, d=high value; x=conc M; c=IC50 M; b=slope;

[1] = test system: STING inhibition in human whole blood (IFNα2α production); experiment: Human whole blood assay (HWBA): cGAMP-stimulated IFNα2α production; assay type: cell-based; settings: Homo sapiens
Description: For the detection of STING inhibition in physiological environment human whole blood was stimulated by the cyclic dinucleotide cGAMP. Pathway activity was monitored by measuring the IFNα2α production.
Assay method: Compounds were delivered as 10 mM DMSO solution and serial diluted and transferred to the 96-well Cell culture Plate (Corning #3595), prefilled with 20 μl OptiMEM (Gibco #11058-021) in each well, using an Echo acoustic dispenser. Typically, 8 concentrations were used with the highest concentration at 10 μM in the final assay volume followed by ~1:5 dilution steps. DMSO concentration was set to 0.1% in the final assay volume. The 96 well assay plate contained 9 test compounds, a reference compound and DMSO in control wells.
Collection of human whole blood from 3 or more healthy donors (male or female, no medication for 7 days, exception contraceptive and thyroxine) as Na-citrate blood (e.g. 3.8% in Monovettes from Sarstedt) is conducted in parallel. Whole blood was kept at room temperature for a maximum of 3 hours after collection until use in the assay.
160 μl of the whole blood samples were transferred to each well of the 96-well assay plates filled with compound/OptiMEM. All assay plates are prepared as duplicates with blood from different donors. Blood plates were kept at room temperature for 60 minutes and continuous shaking with 450 rpm, covered with the lid, but not sealed.
A 10× cGAMP assay solution was diluted from a 2 mM stock solution in 1×HBSS immediately before use at room temperature. 20 μl of the 10× cGAMP/HBSS were added to all compound and all high control wells, whereas HBSS only was added to all low control wells.
After covering assay plates with aera seals and the lid, blood plates were kept at room temperature for 30 minutes and continuous shaking with 450 rpm, followed by an overnight incubation of 22 h at 37° C. in the incubator, without shaking.
For the detection of IFNα-2α in human plasma, the biotinylated capture antibody (Antibody set IFNA2, Meso Scale Diagnostics #B21VH-3, including coating and capture antibody) was diluted 1:17.5 in Diluent 100 (Meso Scale Diagnostics #R50AA-4, according to the manufacturer. U-Plex MSD GOLD 96-well Small Spot Streptavidin SECTOR Plates (Meso Scale Diagnostics #L45SA-5) were coated with 25 μl diluted capture antibody. Coated plates were incubated for 60 min at room temperature under continuous shaking at 700 rpm. MSD IFNα-2α plates were washed three times with 150 μl wash buffer (1×HBSS, 0.05% Tween).
After blocking the plates with 100 μl block solution/well (1×HBSS with 0.2% Tween, 2% BSA) for 60 min at room temperature and continuous shaking at 700 rpm, plates were emptied as dry as possible by dumping just before continuing with the human plasma. Whole Blood assay plates were centrifuged at 1600 rpm for 10 minutes. 25 μl of supernatant was transferred with a pipetting robotics from each whole blood plate to the corresponding IFNα-2α plate. Plates were sealed with microplate seals and kept at room temperature again under continuous shaking at 700 rpm for two hours. Next MSD IFNα-2α plates were washed three times with 150 μl wash buffer (1×HBSS, 0.05% Tween), before adding 25 μl MSD SULFO-TAG IFNα-2α Antibody solution (1:100 diluted in Diluent 3 (Meso Scale Diagnostics #R50AP-2) to each well of the plates. Afterwards plates were sealed with microplate seals and kept at room temperature again under continuous shaking at 700 rpm for two hours. Finally MSD IFNα-2α plates were washed three times with 150 μl wash buffer (1×HBSS, 0.05% Tween). 150 μl 2×Read buffer was added to each well and plates were immediately measured with the MSD Sector S600 Reader using the vendor barcode.
Data evaluation and calculation: For data evaluation and calculation, % control calculation of each well was based on the mean of high (cGAMP stimulated control) and mean of low (unstimulated control) controls by using the following formula: […]

T1 sequence (Q86WV6 138-379 H232R): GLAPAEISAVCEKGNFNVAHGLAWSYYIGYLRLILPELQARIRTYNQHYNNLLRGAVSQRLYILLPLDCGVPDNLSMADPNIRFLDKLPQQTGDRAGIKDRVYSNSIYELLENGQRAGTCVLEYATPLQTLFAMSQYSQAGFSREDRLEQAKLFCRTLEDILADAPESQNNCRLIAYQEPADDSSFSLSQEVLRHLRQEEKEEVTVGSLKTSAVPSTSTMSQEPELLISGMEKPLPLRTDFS

SMILES	IC50 (human STING WT (R232)) [µM]	IC50 [1] [µM]
CC(C)c1c(-c2cccc3nn(C[C@H](O)c4ccccc4)cc23)nc(-c2cc3cn(C)nc3cc2OC(F)(F)F)n1C [Example 109, (1R)-2-(4-{1-methyl-2-[2-methyl-6-(trifluoromethoxy)-2H-indazol-5-yl]-5-(propan-2-yl)-1H-imidazol-4-yl}-2H-indazol-2-yl)-1-phenylethan-1-ol]	0.0188	0.078
Cn1cc2cc(-c3nc(-c4cccc5nn(C[C@H](O)c6ccc(OCCC(C)(C)O)cc6)cc45)c(C4CC4)n3C)c(C3CC3)nc2n1 [Example 41, 4-{4-[(1R)-2-[4-(5-cyclopropyl-2-{6-cyclopropyl-2-methyl-2H-pyrazolo[3,4-b]pyridin-5-yl}-1-methyl-1H-imidazol-4-yl)-2H-indazol-2-yl]-1-hydroxyethyl]phenoxy}-2-methylbutan-2-ol]	0.0064	0.14
Cc1c(C(C)C)c(-c2cccc3nn(C[C@H](O)c4ccc(OCCN(C)C)cc4)cc23)nn1-c1cc2cn(C)nc2nc1C1CC1 [Example 101]	0.0106	0.039
Cc1nc2nn(C)cc2cc1-n1nc(-c2cccc3nn(C[C@H](O)c4ccc(F)cc4)cc23)c(C(C)C)c1C [Example 46, (1R)-2-[4-(1-{2,6-dimethyl-2H-pyrazolo[3,4-b]pyridin-5-yl}-5-methyl-4-(propan-2-yl)-1H-pyrazol-3-yl)-2H-indazol-2-yl]-1-(4-fluorophenyl)ethan-1-ol]	0.0152	0.14
COc1ccc(Cn2cc3cc(-c4nc(-c5cccc6nn(C[C@H](O)c7ccccc7)cc56)c(C5CC5)n4C)c(C4CC4)nc3n2)cc1 [Example 9, (1R)-2-[4-(5-cyclopropyl-2-{6-cyclopropyl-2-[(4-methoxyphenyl)methyl]-2H-pyrazolo[3,4-b]pyridin-5-yl}-1-methyl-1H-imidazol-4-yl)-2H-indazol-2-yl]-1-phenylethan-1-ol]	0.0141	0.063
Cn1cc2cc(-c3nc(-c4cccc5nn(C[C@H](O)c6ccc(OC7COC7)cc6)cc45)c(C4CC4)n3C)c(C3CC3)nc2n1 [Example 69, (1R)-2-[4-(5-cyclopropyl-2-{6-cyclopropyl-2-methyl-2H-pyrazolo[3,4-b]pyridin-5-yl}-1-methyl-1H-imidazol-4-yl)-2H-indazol-2-yl]-1-[4-(oxetan-3-yloxy)phenyl]ethan-1-ol]	0.0075	0.36
Cc1c(C(C)C)c(-c2cccc3nn(C[C@H](O)c4ccccc4)cc23)nn1-c1cc2cn(C)nc2nc1C1CCOC1 (stereo partly drawn) [Example 47, (1R)-2-(4-{5-methyl-1-[2-methyl-6-(oxolan-3-yl)-2H-pyrazolo[3,4-b]pyridin-5-yl]-4-(propan-2-yl)-1H-pyrazol-3-yl}-2H-indazol-2-yl)-1-phenylethan-1-ol]	0.0119	0.15
Cn1c(-c2cc3cn(CCCN4CCCC4=O)nc3nc2C2CC2)nc(-c2cccc3nn(C[C@H](O)c4ccccc4)cc23)c1C1CC1 [Example 28, 1-{3-[6-cyclopropyl-5-(5-cyclopropyl-4-{2-[(2R)-2-hydroxy-2-phenylethyl]-2H-indazol-4-yl}-1-methyl-1H-imidazol-2-yl)-2H-pyrazolo[3,4-b]pyridin-2-yl]propyl}pyrrolidin-2-one]	0.0084	0.11

Further lines, results first:

IC50 (human STING WT (R232)) [µM]	IC50 [1] [µM]	SMILES
0.0428	0.11	Cc1c(C(C)C)c(-c2cccc3nn(C[C@H](O)c4ccccc4)cc23)nn1-c1cc2cn(C)nc2nc1CN1CCOCC1 [Example 26, (1R)-2-[4-(5-methyl-1-{2-methyl-6-[(morpholin-4-yl)methyl]-2H-pyrazolo[3,4-b]pyridin-5-yl}-4-(propan-2-yl)-1H-pyrazol-3-yl)-2H-indazol-2-yl]-1-phenylethan-1-ol]
0.0091	0.076	Cc1nc2nn(C3CCOC3)cc2cc1-n1nc(-c2cccc3nn(C[C@H](O)c4ccccc4)cc23)c(C(C)C)c1C (stereo partly drawn) [Example 14, (1R)-2-(4-{5-methyl-1-[6-methyl-2-(oxolan-3-yl)-2H-pyrazolo[3,4-b]pyridin-5-yl]-4-(propan-2-yl)-1H-pyrazol-3-yl}-2H-indazol-2-yl)-1-phenylethan-1-ol]
0.0058	0.038	Cc1nc2nn(C)cc2cc1-n1nc(-c2cccc3nn(C[C@H](OCC(N)=O)c4ccccc4)cc23)c(C(C)C)c1C [Example 108, 2-[(1R) -2-[4-(1-{2,6-dimethyl-2H-pyrazolo[3,4-b]pyridin-5-yl}-5-methyl-4-(propan-2-yl)-1H-pyrazol-3-yl)-2H-indazol-2-yl]-1-phenylethoxy]acetamide]
0.034	2.9	CC(C)c1nc2nn(C)cc2cc1-c1nc(-c2cccc3nn(CS(=O)(=O)c4ccccc4)cc23)c(C2CC2)n1C [Example 96, 2-[(Benzenesulfonyl)methyl]-4-{5-cyclopropyl-1-methyl-2-[2-methyl-6-(propan-2-yl)-2H-pyrazolo[3,4-b]pyridin-5-yl]-1H-imidazol-4-yl}-2H-indazole]
0.0142	0.061	Cc1nc2nn(Cc3cccnc3)cc2cc1-n1nc(-c2cccc3nn(C[C@H](O)c4ccccc4)cc23)c(C(C)C)c1C [Example 6, (1R)-2-[4-(5-methyl-1-{6-methyl-2-[(pyridin-3-yl)methyl]-2H-pyrazolo[3,4-b]pyridin-5-yl}-4-(propan-2-yl)-1H-pyrazol-3-yl)-2H-indazol-2-yl]-1-phenylethan-1-ol]
0.0284	0.14	Cc1nc2nn(CCCN3CCC(F)(F)C3)cc2cc1-n1nc(-c2cccc3nn(C[C@H](O)c4ccccc4)cc23)c(C(C)C)c1C [Example 40, (1R)-2-[4-(1-{2-[3-(3,3-difluoropyrrolidin-1-yl)propyl]-6-methyl-2H-pyrazolo[3,4-b]pyridin-5-yl}-5-methyl-4-(propan-2-yl)-1H-pyrazol-3-yl)-2H-indazol-2-yl]-1-phenylethan-1-ol]
0.0014	0.081	COCc1nc2nn(C)cc2cc1-n1nc(-c2cccc3nn(C[C@H](O)c4ccccc4)cc23)c(C(C)C)c1C [Example 17, (1R)-2-(4-{1-[6-(methoxymethyl)-2-methyl-2H-pyrazolo[3,4-b]pyridin-5-yl]-5-methyl-4-(propan-2-yl)-1H-pyrazol-3-yl}-2H-indazol-2-yl)-1-phenylethan-1-ol]
